Experimental findings from article PMC9814400 (Communications Chemistry, 2022) are described below.

For one experiment, the target named is T1, p97-N (Homo sapiens, UniProt P55072).
T1 construct: Constructs of p97-N (aa 21-199, N-terminal 3 C protease-cleavable His6-tag); His6 (3C protease-cleavable) (N); made in house
As to the kind of experiment: BLI dose-response binding to the isolated N-domain of p97. The following applies: for Kd: BLI steady state, 1:1 Langmuir model, errors from the fitting model; for LLEAT: based on KD for p97-N, heavy atom count and clogP; for ScoreBLI: based on sensorgrams from measurements with p97-N, about 1.0 or above = 1:1 binder; for LE: ligand efficiency based on KD for p97-N. How it is done:
The selected 42 fragments of the screen with the N-domain were tested in a dose-dependent manner using concentrations from 1000.0 µM to 31.3 µM in 1:1 dilution steps. […] The sensorgrams of these fragments were fitted with a 1:1 Langmuir model to estimate their affinities and analyzed with respect to the following parameters: (i) The presence of a stationary phase; (ii) curve shapes according to either a homogeneous (1:1) or a heterogeneous (2:1) binding model, and (iii) justification of a 1:1 binding model via the obtained empirical constants kobs of the association phase. Based on these analyses, a ScoreBLI was calculated (for details see Supplementary Methods in the Supporting Information). The calculated ScoreBLI should be close to or above 1.0 for ligands that can be described with a 1:1 model, whereas ligands showing unspecific binding yield values << 1.0. Based on the ScoreBLI, we divided the fragments into a low-scoring (<0.70) and a high-scoring (≥0.70) group.
Protein constructs for BLI measurements were enzymatically biotinylated using BirA[28]. Biotinylated p97 was loaded on Super Streptavidin Biosensors (SSA) obtained from Sartorius as follows. SSA-sensors were equilibrated in PBS-buffer, loaded with a protein solution containing 50 µg/mL (p97-ND1) or 100 µg/mL (p97-N) protein, blocked with biocytin and washed in PBS buffer. Reference SSA-sensors were set up by blocking them with a 10 µg/mL biocytin solution for 5 min[27]. The SSA-sensors were loaded to a shift of up to 7 nm with p97-ND1 and 10 nm with p97-N, respectively.
Screening plates were prepared by adding 10 µL of a 10 mM DMSO stock solution of library compound to 190 µL of PBS buffer (containing 0.05% TWEEN 20, 1 mM DTT and 5 mM MgCl2 [only for p97-ND1]) in 96 well plates (Greiner). The final DMSO concentration was 5% (v/v). All BLI measurements were performed on an Octet RED96e (Sartorius) device.
Selected fragments of the initial screenings were confirmed by dose-response-titrations using six concentrations ranging from 1000 to 31.3 µM in a 1:1 dilution series. Every concentration was measured twice. The assay settings were as follows: baseline measurement 15 s; association time 120 s and dissociation time 180 s. The double referenced data were further analyzed in Origin Pro to estimate the affinity by fitting the signals of the steady states to a 1:1 Langmuir model. For the fitting all measured data points (n = 2) were considered.
Definition of the quality score “ScoreBLI”
For selecting fragments for further analysis, the ScoreBLI was def ined as : […]
SSSSSSSSSSBBBBBB = rrmmmmmmmm 1:1rrmmmmmmmm 2:12 SSkkkkkkkk rmean 1:12 is the mean of the r2 coefficients of t he r egr es s ions of all association phases measured f or a given f ragment. The data were f itted with a 1:1 binding model:
RRPP = RRPPee ?1 − SS −(kkkkkkkk PP ) ? with RRPP the shift at the time t, k obs the empirical rate constant and RRPPee the shift at equilibrium.
In analogy, the rmean 2:12 was def ined by f itting with a 2:1 binding model:
RRPP = RRPPee 1 ?1 − SS −(kkkkkkkk1 PP) ? + RRPPee 2 ?1 − SS −(kkkkkkkk2 PP) ? A ligand f ollowing a 1:1 model would result in a good rmean2 f or both functions, whereas f or a lig and which is better described with a 2:1 model the rmean2 f or a 1:1 model would decrease, resulting in an overall decreased value.
In case of a 1:1 model the empirical rate constant k obs is proportional to the concentration of […]
kkkkkkkk = kkPP [LL ] + kkdd with ka t he association rate constant and kd t he dissociation rate constant. Theref ore, all observed empirical rate constants of a ligand were subjected to a linear regression model, which yielded the value r kobs2 .
A Langmuir model was used to es t im at e the affinities of the fragments. The use of this model requires that a chemical equilibrium is reached. To analyze whether this condition was met, the responses of the last 10 seconds of each association phase were f itted with a linear model. […]

In the next experiment the target is T2, N-domain of p97 (Homo sapiens, UniProt P55072).
T2 construct: additional STD measurements with the isolated N-domain were carried out; made in house
T2 sequence (P55072 21-199 limits assumed): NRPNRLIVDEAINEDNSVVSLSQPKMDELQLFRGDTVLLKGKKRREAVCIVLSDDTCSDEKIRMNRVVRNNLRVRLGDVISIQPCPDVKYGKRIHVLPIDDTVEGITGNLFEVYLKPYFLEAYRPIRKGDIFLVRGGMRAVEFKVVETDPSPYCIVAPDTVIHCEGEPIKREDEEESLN
Kind of experiment: STD-NMR build-up measurements with the isolated N-domain. Type of experiment: binding. The procedure: To obtain additional information about the putative binding mode of the selected fragments, full STD-NMR build-up curves were measured for the fragments TROLL2, TROLL7, TROLL8 and TROLL12 and the initial rates of STD build-up (STD0) were calculated. […] As expected, the saturation effects were higher for the ND1 construct compared to the isolated N-domain due to the stronger nuclear Overhauser effect (NOE) of the much larger protein. Because of water suppression, not all hydrogens of the selected fragments were experimentally accessible. For the remaining hydrogen atoms, different STD0 values were determined, indicating a defined orientation of the fragments upon binding to p97 (Supplementary Fig. 7). For TROLL2, TROLL7 and TROLL12 a clear dominance in the saturation of the protons at the hydrophobic aromatic parts of the molecules was visible.
For binding epitope mapping of selected fragments, the initial growth rates approach was used as described. For determination of the initial rate of STD build up (STD0) the STD intensities for seven saturation times (0.5, 0.75, 1.0, 1.5, 2.0, 3.0, 5.0 s) were measured for the ND1 as well as for the isolated N-domain and fitted by an exponential equation using R. The recycle delay (d1) was set to 5 s. For each fragment also a negative control without protein was measured with a saturation time of 5.0 s. Theoretical STD0 values on the basis of the obtained X-ray crystal structure as well as for representative mixed-solvent MD poses were calculated using the Complete Relaxation and Conformational Exchange Matrix Analysis of Saturation Transfer (CORCEMA-ST) software version 3.8[72] and ShiftX version 1.1[73]. Predicted and experimental STD-data were evaluated using the NOE R-factor (see Supplementary Methods in the Supporting Information).

T1 sequence (P55072 21-199): as the sequence (P55072 21-199 limits assumed) above

For the molecule `NCC(O)c1ccc(Br)cc1` (stereo not drawn) [TROLL2], at p97-N, the dissociation constant Kd – broadly, the equilibrium constant for the complex coming apart – amounted to 56 ± 46 µM; the LLEAT was determined as 0.47; the ScoreBLI is on record as 0.83; the LE is listed as 0.52. The “binding to the N-domain by STD-NMR” value on N-domain of p97 was “confirmed the binding”.
`Cc1ccc(-c2cc(N)n[nH]2)o1` [TROLL8]: on p97-N, the affinity, expressed as Kd, was 245 ± 43 µM; the LLEAT came out at 0.40; the ScoreBLI amounted to 0.91; the LE was 0.41. Moreover, the “binding to the N-domain by STD-NMR” value at N-domain of p97 is listed as “confirmed the binding”.
For `Cc1oc(CN)nc1-c1ccccc1` [TROLL12], in that order: 354 ± 17 µM, 0.34, 0.84, 0.33 and “confirmed the binding”.
